Assays:
Type in all cases: in vivo
[1] = tested on: Fragile X (Fmr1) knockout mouse; experiment: Plasma metabolomics after weekly suramin or saline, Fragile X model; conditions: for Suramin Treatment Effect (KO-Sur/KO-Sal): Fragile X KO
Procedure: Samples were analyzed on an AB SCIEX QTRAP 5500 triple quadrupole mass spectrometer equipped with a Turbo V electrospray ionization (ESI) source, Shimadzu LC-20A UHPLC system, and a PAL CTC autosampler (AB ACIEX, Framingham, Mass., USA). […] Plasma was separated by centrifugation at 600 g×5 minutes at 20° C. within one hour of collection. Fresh lithium-heparin plasma was transferred to labeled tubes for storage at −80° C. for analysis. Typically 45 μl of plasma was thawed on ice and transferred to a 1.7 ml Eppendorf tube. Two and one-half (2.5) μl of a cocktail containing 35 commercial stable isotope internal standards, and 2.5 μl of 310 stable isotope internal standards that were custom-synthesized in E. coli and S. cerevisiae by metabolic labeling with ^13C-glucose and ^13C-bicarbonate, were added, mixed, and incubated for 10 min at room temperature to permit small molecules and vitamins in the internal standards to associate with plasma binding proteins. Macromolecules (protein, DNA, RNA, etc.) were precipitated by extraction with 4 volumes (200 μl) of cold (−20° C.), acetonitrile:methanol (50:50) (LCMS grade, Cat#LC015-2.5 and GC230-4, Burdick & Jackson, Honeywell), vortexed vigorously, and incubated on crushed ice for 10 min, then removed by centrifugation at 16,000 g×10 min at 4° C. The supernatants containing the extracted metabolites and internal standards in the resulting 40:40:20 solvent mix of acetonitrile:methanol:water were transferred to labeled cryotubes and stored at −80° C. for LC-MS/MS (liquid chromatography-tandem mass spectrometry) analysis.
LC-MS/MS analysis was performed by multiple reaction monitoring (MRM) under Analyst v1.6.1 (AB SCIEX, Framingham, Mass., USA) software control in both negative and positive mode with rapid polarity switching (50 ms). Nitrogen was used for curtain gas (set to 30), collision gas (set to high), ion source gas 1 and 2 (set to 35). The source temperature was 500° C. Spray voltage was set to −4500 V in negative mode and 5500 V in positive mode. The values for Q1 and Q3 mass-to-charge ratios (m/z), declustering potential (DP), entrance potential (EP), collision energy (CE), and collision cell exit potential (CXP) were determined and optimized for each MRM for each metabolite. Ten microliters of extract was injected by PAL CTC autosampler into a 250 mm×2 mm, 5 μm Luna NH2 aminopropyl HPLC column (Phenomenex, Torrance, Calif., USA) held at 25° C. for chromatographic separation. […] The flow rate was 300 μl/min. All the samples were kept at 4° C. during analysis. The chromatographic peaks were identified using MultiQuant (v3.0, AB SCIEX), confirmed by manual inspection, and the peak areas integrated. The median of the peak area of stable isotope internal standards was calculated and used for the normalization of metabolites concentration across the samples and batches. Prior to multivariate and univariate analysis, the data were log-transformed.
A rendering of mammalian intermediary metabolism was constructed in Cytoscape v 3.1.1 (see, e.g., [http://]www.cytoscape.org/). […] Nodes in the Cytoscape network represent metabolites within the pathways and have been colored according to the Z-score. The Z-score was computed as the arithmetic difference between the mean concentration of each metabolite in the KO-Sur treatment group and the KO-Sal control group, divided by the standard deviation in the controls. Node colors were arranged on a red-green color scale with green representing −2.00 Z-score, red representing +2.00 Z-score, and with a zero (0) Z-score represented as white.
Group means and standard error of the means (SEM) are reported. Behavioral data were analyzed by two-way ANOVA and one-way ANOVAs (GraphPad Prism 5.0d, GraphPad Software Inc., La Jolla, Calif., USA, or Stata/SE v12.1, StataCorp, College Station, Tex., USA). Pair-wise post hoc testing was performed by the method of Tukey or Newman-Keuls. Significance was set at p<0.05.

[2] = tested on: Fragile X (Fmr1) knockout mouse; experiment: Marble burying, Fragile X model; conditions: KO-Sal v KO-Sur
Procedure: Marble burying behavior was measured over 30 minutes by a modification of methods used by Thomas, et al. (Thomas et al., 2009). Marble burying was used as a measure of normal rodent digging behavior. Marble burying has sometimes been considered a measure of anxiety, however, comprehensive genetic and behavioral studies have shown that marble burying is a normal mouse behavior that is genetically determined (Thomas et al., 2009). Marble burying was diminished 38% in Fragile X knockout mice.

[3] = tested on: maternal immune activation (MIA) mouse model; experiment: T-maze spontaneous alternation, MIA model; conditions: MIA animals
Procedure: Novelty preference was tested as spontaneous alternation behavior in the T-maze. […] (N=8-13, 5.25-month-old males per group).
Novelty preference is an innate feature of normal rodent and human behavior and a predictor of socialization and communication growth in children with ASD. The loss or suppression of novelty preference in children with ASD is associated with the phenomenon known as insistence on sameness. Preference for novelty was estimated as spontaneous alternation behavior in the T-maze. The T-maze can also be used to estimate spatial working memory, especially when food-motivated. […] These deficits were normalized after a single dose of suramin.

[4] = tested on: Fragile X (Fmr1) knockout mouse; experiment: Body temperature measurements (rectal core temperature)
Procedure: A BAT-12 Microprobe digital thermometer and RET-3 mouse rectal probe (Physitemp Instruments, Clifton, N.J.) were used to obtain rectal core temperatures to a precision of +/−0.1° C. Care was taken to measure temperatures ≧2 days after cage bedding changes, and to avoid animal transport stress immediately prior to measurement in order to avoid stress-induced hyperthermia (Adriaan Bouwknecht et al., 2007). Temperatures were measured between 9 am to 12 noon each day.
Normal basal body temperature was restored by antipurinergic therapy with suramin.

SMILES: Cc1ccc(C(=O)Nc2ccc(S(=O)(=O)O)c3cc(S(=O)(=O)O)cc(S(=O)(=O)O)c23)cc1NC(=O)c1cccc(NC(=O)Nc2cccc(C(=O)Nc3cc(C(=O)Nc4ccc(S(=O)(=O)O)c5cc(S(=O)(=O)O)cc(S(=O)(=O)O)c45)ccc3C)c2)c1 [Suramin, suramin]
- Suramin Treatment Effect (KO-Sur/KO-Sal) ([1]; Bile Salt Metabolism, plasma): Increased
- Suramin Treatment Effect (KO-Sur/KO-Sal) ([1]; Branch Chain Amino Acid Metabolism, plasma): Increased
- Suramin Treatment Effect (KO-Sur/KO-Sal) ([1]; Cardiolipin Metabolism, plasma): Decreased
- Suramin Treatment Effect (KO-Sur/KO-Sal) ([1]; Cholesterol, Cortisol, Non-Gonadal Steroid Metabolism, plasma): 2/2 Increased
- Suramin Treatment Effect (KO-Sur/KO-Sal) ([1]; Eicosanoid and Resolvin Metabolism, plasma): 4/6 Increased
- Suramin Treatment Effect (KO-Sur/KO-Sal) ([1]; Fatty Acid Oxidation and Synthesis, plasma): 9/9 Decreased
- Suramin Treatment Effect (KO-Sur/KO-Sal) ([1]; Ganglioside Metabolism, plasma): 6/6 Increased
- Suramin Treatment Effect (KO-Sur/KO-Sal) ([1]; Glycolysis and Gluconeogenesis, plasma): 2/2 Decreased
- Suramin Treatment Effect (KO-Sur/KO-Sal) ([1]; Isoleucine, Valine, Threonine, or Methionine Metabolism, plasma): Increased
- Suramin Treatment Effect (KO-Sur/KO-Sal) ([1]; Krebs Cycle, plasma): Increased
- Suramin Treatment Effect (KO-Sur/KO-Sal) ([1]; Microbiome Metabolism, plasma): 2/3 Decreased
- Suramin Treatment Effect (KO-Sur/KO-Sal) ([1]; Nitric Oxide, Superoxide, Peroxide Metabolism, plasma): Increased
- Suramin Treatment Effect (KO-Sur/KO-Sal) ([1]; Pentose Phosphate, Gluconate Metabolism, plasma): Increased
- Suramin Treatment Effect (KO-Sur/KO-Sal) ([1]; Phospholipid Metabolism, plasma): 6/6 Increased
- Suramin Treatment Effect (KO-Sur/KO-Sal) ([1]; Purine Metabolism, plasma metabolites with VIP >=1.5, weekly suramin vs saline): 4/5 Decreased
- Suramin Treatment Effect (KO-Sur/KO-Sal) ([1]; Pyrimidine Metabolism, plasma): Decreased
- Suramin Treatment Effect (KO-Sur/KO-Sal) ([1]; SAM, SAH, Methionine, Cysteine, Glutathione Metabolism, plasma): 3/3 Increased
- Suramin Treatment Effect (KO-Sur/KO-Sal) ([1]; Sphingolipid Metabolism, plasma): 3/5 Decreased
- Suramin Treatment Effect (KO-Sur/KO-Sal) ([1]; Vitamin B3 (Niacin, NAD+) Metabolism, plasma): 1/2 Increased
- Suramin Treatment Effect (KO-Sur/KO-Sal) ([1]; Vitamin B6 (Pyridoxine) Metabolism, plasma): Increased
- Suramin Treatment Effect (KO-Sur/KO-Sal) ([1]; all 20 of 60 Pathways Dysregulated, top 58 metabolites, plasma): 33/58 Increased
- acyl-carnitine species with generalized decrease ([1]; plasma, Fmr1 KO mice, suramin treatment): 9 of 9
- biochemical pathways with pharmacometabolomic changes ([1]; plasma, Fmr1 KO mice, weekly suramin): 20 of 60
- diminished marble burying [2]: improved
- novelty preference five weeks after suramin washout ([3]; 5 weeks after single dose): no residual benefit remained
- deficient novelty preference (spontaneous alternation in T-maze) ([3]; single dose of suramin): normalized
- body temperature of control animals ([4]; WT-Sal vs WT-Sur): no effect
- basal body temperature of Fmr1 knockout mice ([4]; relative hypothermia of knockout, suramin treatment): restored

From US20160209428A1, “DIAGNOSTIC AND PREDICTIVE METABOLITE PATTERNS FOR DISORDERS AFFECTING THE BRAIN AND NERVOUS SYSTEM” (THE REGENTS OF THE UNIVERSITY OF CALIFORNIA, priority 2013, published 2016)
